# “Also recorded” adds a separate entry of the source.
# Columns and labels:
# TXNIP-TRX complex = target: T1, TXNIP-TRX complex (Homo sapiens, UniProt Q9H3M7); experiment: Co-IP using extracts from high glucose treated THP1 cells in the presence of compounds; type: biochemical; conditions: extracts of THP1 cells treated with 25 mM glucose 3 days; compounds added to extract (5 uM)
# T1 construct: Co-immunoprecipitation (Co-IP) of TXNIP with TRX in THP 1 monocytes cells treated with compounds under high glucose condition; endogenous in cells; host or cells: THP1 human monocytes cultured in 25 mM glucose
# T1 sequence (Q9H3M7 1-391): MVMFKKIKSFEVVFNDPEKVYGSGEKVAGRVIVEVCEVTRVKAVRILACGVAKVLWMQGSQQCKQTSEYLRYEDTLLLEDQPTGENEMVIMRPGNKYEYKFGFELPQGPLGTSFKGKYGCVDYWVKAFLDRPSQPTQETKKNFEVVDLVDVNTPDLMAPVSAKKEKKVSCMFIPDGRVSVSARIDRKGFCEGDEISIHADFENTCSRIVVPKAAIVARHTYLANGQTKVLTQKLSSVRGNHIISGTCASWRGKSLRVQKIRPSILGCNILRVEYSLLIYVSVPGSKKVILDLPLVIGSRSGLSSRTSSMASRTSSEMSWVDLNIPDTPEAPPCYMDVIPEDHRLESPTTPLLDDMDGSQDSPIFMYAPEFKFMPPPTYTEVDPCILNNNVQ
# Method: Assay 2: Co-IP using extracts from THP 1 cells treated high glucose and in the presence of compounds. In this assay, TXNIP is already highly expressed (because the cells are treated with HG), we assume there is high concentration of TXNIP/TRX complexes in the cell extract. Co-IPs were done in these extracts through adding TRX antibody and compounds. If a compound is able to break the (pre-formed) TXNIP/TRX complex, there will be a reduced signal (band intensity) in the assay.
# Co-IP with THP1 high glucose treated extract in the presence of the compounds. THP1 cells were treated with 25 mM glucose for 3 days, the cell extract were prepared. Them 300 ul extract were used for TP. Compounds were added to 5 uM Co-IP were followed according to the Co-IP protocol.
# 1. Transfer the cultured cells from the culture dish to a 15-mL conical tube. 2. Centrifuge at 500×g for 2 min at 4° C. and remove the supernatant. 3. Wash with ice-cold PBS and centrifuge at 500×g for 2 min at 4° C. Remove the supernatant. 4. Repeat Step 3 twice.
# 5. Resuspend the cell pellet in ice-cold cell lysis buffer (1 mL per 1×10^7 cells) and incubate on ice for 10 min. 6. […]
# Note: Pre-clearing the lysate is recommended to reduce the non-specific binding. However, if the protein is detected by western blotting, pre-clearing may not be necessary unless a contaminating protein is interfering with visualization of the protein of interest. […]
# TXNIP mRNA [1] = experiment: TXNIP mRNA expression (RT-PCR) in murine RAW macrophages; type: cell-based; conditions: RAW cells, 25 mM glucose, 72 h (FIG. 10A)
# Method: FIGS. 10A-10B. FIG. 10A. […] RAW cells were cultured in 25 mM glucose with C1 (uM) for 72 h. Total RNA was prepared. RT-PCR was performed. Data shown are the mean+SEM from triplicates. Statistical analysis was performed for each column vs. high glucose (HG) DMSO using one-way ANOVA: *<0.0001. FIG. 10B. […] RAW cells were cultured in 25 mM glucose with C1 (uM) for 72 hours. Total RNA was prepared. RT-PCR was performed. Data shown are the mean+SEM from triplicates. Statistical analysis was performed for each column vs. HG DMSO using one-way ANOVA: *<0.0001.
# (§1) RNA extraction and quantitative RT-PCR. RNA was extracted using the Direct-zol™ RNA MiniPrep Plus (Zymo Research). Reverse transcription of RNA samples into cDNA was performed using the GeneAmp RNA PCR Kit (Applied Biosystems), dNTP (from Roche Applied Science), Rnase inhibitor, MULV Reverse Transcriptase and Random hexamers reagent (all from Invitrogen). Diluted cDNA was quantified using real-time PCR performed with Power SYBR Green qPCR MasterMix (Applied Biosystem) and 7500 real-time PCR system (Applied Biosystems). The HPRT1 gene was used as an internal control.
# TXNIP mRNA [2] = experiment: TXNIP mRNA expression (RT-PCR) in human 1.1B4 pancreatic β cells; type: cell-based; conditions: 1.1B4 β cells, 25 mM glucose, 72 h (FIG. 12 left)
# Method: FIG. 12. […] Human 1.1B4 β cells were cultured in 25 mM glucose with C1 (uM) for 72 h. Total RNA was prepared. RT-PCR was performed. Data shown are the mean+SEM from triplicates. Statistical analysis was performed for each column vs. HG DMSO using one-way ANOVA: *<0.0001.
# as §1
smiles,measurement,setting,value
"CC(C)C(C(=O)O)N1C(=O)c2ccncc2C1=O (stereo not drawn) [Compound C1, 2-(1,3-dioxo-1,3-dihydro-2H-pyrrolo[3,4-c]pyridin-2-yl)-3-methylbutanoic acid]",effect on pre-formed TXNIP/TRX complex (co-IP band intensity),TXNIP-TRX complex,inhibit high glucose-induced TXNIP-TRX co-immunoprecipitation in cell extracts; also recorded: reproducibly can affect TXNIP/TRX complex
same,TXNIP mRNA expression,TXNIP mRNA [1],inhibits TXNIP mRNA expression; also recorded: inhibited TXNIP and TNF-α mRNA expression
same,TXNIP mRNA expression,TXNIP mRNA [2],affects TXNIP and TNF-α mRNA expression; also recorded: strongly inhibited TXNIP mRNA expression

# Source: US11974990B2, “TXNIP-TRX complex inhibitors and methods of using the same” (City of Hope, priority 2018, dated 2024)
